Tests used:
Assay in all cases: relative viability (nuclei count vs DMSO), 5 days (fraction); higher = more cells survive
[1] = compound: NCC(=O)Nc1ccc(-n2nc(C(F)(F)F)cc2-c2ccc3c(ccc4ccccc43)c2)cc1 + CS(=O)(=O)N1CCN(Cc2cc3nc(-c4cccc5[nH]ncc45)nc(N4CCOCC4)c3s2)CC1 [Pictilisib] (partner 1 µM)
How it was run: (§1)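 Lung cancer cell lines, seeded in 1536-well plates, were treated the following day by pin tool with a single drug or with five library-drug doses (not always all listed) in √10 steps on top of a fixed anchor-drug dose. Cells were fixed and nuclei stained in one step after 5 days, and nuclei were counted. Relative viability is the nuclei count for treated wells divided by that for vehicle wells, reported as medians of duplicate plates.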

[2] = compound: NCC(=O)Nc1ccc(-n2nc(C(F)(F)F)cc2-c2ccc3c(ccc4ccccc43)c2)cc1 + C[C@]1(O)C[C@@H](c2nc(-c3ccc4ccc(-c5ccccc5)nc4c3)c3c(N)nccn32)C1 [Linsitinib] (partner 1 µM)
How it was run: as §1

kb NB 142-70 + OSI-027 = compound: C1CSC2=C(C(=O)N1)SC3=C2C=C(C=C3)O [kb NB 142-70] + COc1cccc2cc(-c3nc([C@H]4CC[C@H](C(=O)O)CC4)n4ncnc(N)c34)[nH]c12 [OSI-027] (partner 0.5 µM)
How it was run: as §1

[3] = compound: NCC(=O)Nc1ccc(-n2nc(C(F)(F)F)cc2-c2ccc3c(ccc4ccccc43)c2)cc1 + CC1(C)CCC(c2ccc(Cl)cc2)=C(CN2CCN(c3ccc(C(=O)NS(=O)(=O)c4ccc(N[C@H](CCN5CCOCC5)CSc5ccccc5)c(S(=O)(=O)C(F)(F)F)c4)cc3)CC2)C1 [Navitoclax] (partner 0.5 µM)
How it was run: as §1

Cell Line | relative viability ([1]; first compound 0.02 µM) | relative viability ([1]; first compound 0.06325 µM) | relative viability ([1]; first compound 0.2 µM) | relative viability ([1]; first compound 0.6325 µM) | relative viability ([1]; first compound 2 µM) | relative viability ([2]; first compound 0.02 µM) | relative viability ([2]; first compound 0.06325 µM) | relative viability ([2]; first compound 0.2 µM) | relative viability ([2]; first compound 0.6325 µM) | relative viability ([2]; first compound 2 µM) | relative viability (kb NB 142-70 + OSI-027; first compound 0.1 µM) | relative viability (kb NB 142-70 + OSI-027; first compound 1 µM) | relative viability (kb NB 142-70 + OSI-027; first compound 3.162 µM) | relative viability ([3]; first compound 0.02 µM) | relative viability ([3]; first compound 0.06325 µM) | relative viability ([3]; first compound 0.2 µM) | relative viability ([3]; first compound 0.6325 µM) | relative viability ([3]; first compound 2 µM)
201T | 0.664 | 0.655 | 0.68 | 0.734 | 0.687 | 0.957 | 1.01 | 1.09 | 1.09 | 1.04 | 0.723 | 0.714 | 0.653 | 1.26 | 1.18 | 1.24 | 1.25 | 1.22
A549 | 0.459 | 0.495 | 0.564 | 0.565 | 0.517 | 0.626 | 0.599 | 0.608 | 0.579 | 0.614 | – | – | – | 1.24 | 1.19 | 1.24 | 1.17 | 0.7
A-427 | 0.595 | 0.726 | 0.744 | 0.739 | 0.815 | 1.12 | 1.17 | 1.16 | 1.02 | 1.03 | 0.524 | 0.469 | 0.408 | 0.798 | 0.956 | 0.972 | 0.95 | 0.959
ABC-1 | 0.808 | 0.81 | – | 0.745 | 0.563 | 0.731 | 0.917 | – | 0.915 | 0.855 | 0.481 | 0.506 | 0.346 | – | – | – | – | –
BEN | 0.54 | 0.581 | 0.55 | 0.547 | 0.576 | 0.885 | 1.06 | 0.923 | 0.861 | 0.914 | 0.306 | 0.301 | 0.202 | 0.0632 | 0.0631 | 0.0469 | 0.0862 | 0.0668
CAL-12T | 0.392 | 0.617 | 0.481 | 0.404 | 0.475 | 0.718 | 0.836 | 0.865 | 0.775 | 0.819 | 0.857 | 0.719 | 0.444 | 1.17 | 1.19 | 1.37 | 1.2 | 1.34
COR-L23 | 0.712 | 0.767 | 0.95 | 0.798 | 0.613 | 0.989 | 0.927 | 1.05 | 0.896 | 0.95 | 0.797 | 0.728 | 0.279 | 1.1 | 0.935 | 1.01 | 1.07 | 1
COR-L 105 | 0.426 | 0.357 | 0.423 | 0.363 | 0.391 | 0.918 | 0.943 | 0.98 | 1.02 | 1.15 | 0.821 | 0.734 | 0.674 | 0.817 | 0.947 | 0.649 | 0.841 | 0.703
Calu-6 | 0.849 | 0.891 | 0.975 | 0.949 | 0.93 | 0.914 | 0.939 | 1.06 | 0.911 | 0.983 | – | – | – | 0.885 | 0.812 | 1.09 | 0.844 | 0.878
